Measured values from US20240299486A1, “ADDRESSING INJECTION SITE REACTIONS ASSOCIATED WITH THE ADMINISTRATION OF ELAMIPRETIDE” (STEALTH BIOTHERAPEUTICS INC., priority 2022, published 2024).

Legend:
[1] = system: healthy subjects; experiment: Phase 1 crossover study: clinically assessed injection site reactions
Description: • This Phase 1, open-label, 6-arm crossover study included 10 healthy subjects ≥18 and ≤65 years of age. • All subjects received 60 mg of SQ elamipretide to alternating quadrants of the abdomen on each of 6 occasions (FIG. 3), with or without the interventions listed in Table 2. • For each treatment arm, ISR clinical and self-assessments were performed pre-elamipretide administration and at 0.5, 1, 2, 4, 6, 12, 24, and 48 hours after each elamipretide dose. • Blood samples for plasma concentrations of elamipretide and its metabolites were also collected pre-dose and at 0.25, 0.5, 1, 2, 4, and 6 hours post-elamipretide dose. • Primary endpoints consisted of comparisons of the grading from the clinical assessments and the self-assessments of each ISR parameter following administration of elamipretide with each separate intervention versus that of elamipretide alone. • Secondary endpoints consisted of comparison of various pharmacokinetic (PK) parameters and adverse events following administration of elamipretide with each separate intervention versus that of elamipretide alone.
After the screening period (up to 28 days) in this phase 1, open-label, 4-week, 6-part, crossover study, all eligible subjects received 60 mg (0.75 mL) of SC elamipretide to alternating quadrants of the abdomen on each of 6 occasions, with or without potential ISR interventions. The first treatment arm (Arm 1) commenced on Day 1 with administration of elamipretide only, followed by the remaining treatment arms (Arms 2-6) with the following potential mitigations: mometasone furoate, 0.1% ointment, applied once under a hydrocolloid occlusive dressing (DuoDERM Extra Thin) 7 days prior to elamipretide administration (Arm 2); ice application at the elamipretide injection site 5 minutes pre- and post-drug administration (Arm 3); tacrolimus 0.1% ointment applied 15 minutes pre-drug dosing (Arm 4); doxepin 5% cream applied 15 minutes pre-elamipretide administration (Arm 5); and diphenhydramine 50 mg orally taken 2 hours prior to administration (Arm 6). For each treatment arm, blood samples for plasma concentrations of elamipretide and its metabolites were collected pre-dose and at 0.25, 0.5, 1, 2, 4, and 6 hours post-elamipretide dose. Vital signs were recorded pre-dose and at 0.5 and 6 hours post-elamipretide administration. ISR clinical and self-assessments were performed pre-elamipretide administration and at 0.5, 1, 2, 4, 6, 12, 24, and 48 hours after each elamipretide dose. Injection sites were photographed at 0.5, 1, 2, 4, and 12 hours post-elamipretide dose.
The primary endpoints of this study were comprised of the following efficacy measures: clinical assessments and subject self-assessments. Specifically, the primary endpoints consisted of comparisons of the grading of each ISR parameter following administration of elamipretide with each separate intervention versus the grading of each ISR parameter following administration of elamipretide alone. For clinical assessments, the clinical staff used a standard procedure adapted from the Division of Aids Table for Grading the Severity of Adult and Pediatric Adverse Events to score pain, erythema, induration, and pruritus using a 4-point scale based on severity (0=None, 1=Mild, 2=Moderate, 3=Severe, 4=Potentially Life Threatening). The self-assessments were based on a questionnaire to determine how bothered the patient was following each injection of elamipretide and included the following parameters: pain, burning sensation, cold sensation, itching, redness, swelling, and bruising.
All statistical analyses were performed using SAS GRID Linux/SAS Studio (Version 9.4, or higher). PK parameters for elamipretide and its metabolites, M1 and M2, were summarized using descriptive statistics.

[2] = system: non-human primates; details: long term toxicology studies
[3] = molecular target: human MRGPRX2 (Homo sapiens, UniProt Q96LB1); experiment: cell-based
human MRGPRX2, sequence (Q96LB1 whole entry): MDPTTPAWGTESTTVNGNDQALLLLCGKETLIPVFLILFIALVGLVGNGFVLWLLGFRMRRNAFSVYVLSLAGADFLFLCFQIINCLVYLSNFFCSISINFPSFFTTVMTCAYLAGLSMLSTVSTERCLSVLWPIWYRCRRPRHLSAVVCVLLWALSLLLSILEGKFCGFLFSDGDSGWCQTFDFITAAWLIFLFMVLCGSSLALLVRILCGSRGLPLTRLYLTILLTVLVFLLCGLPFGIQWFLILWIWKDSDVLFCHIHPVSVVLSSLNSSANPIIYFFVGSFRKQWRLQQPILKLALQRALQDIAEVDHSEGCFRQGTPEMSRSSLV
Description: A clonal HEK293 cell line stably expressing human MRGPRX2 and Galpha15 was used for the assay, which was performed using a fluorescent plate reader. Cells were plated at 40,000 cells per well in a glass-bottom 96 well plate 20 hours before the assay. Cells were loaded with N-[4-[6-[(Acetyloxy)methoxy]-2,7-difluoro-3-oxo-3H-xanthen-9-yl]-2-[2-[2-[bis[2-[(acetyloxy)methoxy]-2-oxoethyl]amino]-5-methylphenoxy]ethoxy]phenyl]-N-[2-[(acetyloxy)methoxy]-2-oxoethyl]glycine (acetyloxy)methyl ester (Fluo-4 AM) for 45 minutes at 37° C. and allowed to rest for 30 minutes before use. Baseline fluorescence was calculated as the average of a 30 second read, with data points taken at 5 second intervals. Response was defined as the maximum signal within 90 seconds after addition of elamipretide, subtracted by the baseline fluorescence signal. Concentrations were tested in duplicate and the assay was run 6 times. The curve was calculated as a four-parameter non-linear fit with variable slope. Traces were obtained using the same cell line and same Fluo-4 AM loading protocol but were imaged using a fluorescence microscope using a standard fluorescein isothiocyanate (FITC) filter. Fluorescence for different cells was calculated using region of interest selections.
A calcium-based readout of receptor activity was used to determine whether elamipretide activates human MRGPRX2 and its mouse ortholog Mrgprb2. This assay is known to be widely used in drug screening and utilized a cell line stably transfected with the receptor along with Galpha15, a promiscuous G protein that couples to the receptor and induced an increase in intracellular calcium when the receptor was activated. Thus, an increase in calcium levels reflected receptor activation. Calcium levels were detected by imaging Fluo-4 (from Fluo-4 AM), a dye that increases in fluorescence when bound to calcium.

[4] = system: Mouse primary peritoneal mast cells; experiment: Mast cell activation (Fluo-4 calcium imaging); format: cell-based; details: 500 micrograms/mL elamipretide
Description: Mouse primary peritoneal mast cells were isolated from wild type and Mrgprb2 knockout mice. Mast cells were incubated in Dulbecco's Modified Eagle Medium, supplemented with 10% fetal bovine serum and 100 ng/mL human stem cell factor for 2 hours in wells of a glass-bottom 96 well plate that had been previously coated with fibronectin. […] A confocal fluorescence microscope was used to assess changes in free intracellular calcium levels in each mast cell in a visual field, as measured by changes in Fluo-4 fluorescence using a standard FITC filter, reflecting responsiveness to elamipretide. Cells were identified as responding if the Fluo-4 signal rose by at least 50% for at least 10 seconds, which clearly distinguishes a ligand-induced response from random flickering events.
Injection site reactions induced by several classes of drugs were mediated in mice by Mrgprb2-dependent activation of mast cells. Whether elamipretide activated primary mouse connective tissue mast cells was evaluated, and if so, it was evaluated whether this was Mrgprb2-dependent. […] Briefly, primary connective tissue mast cells were purified from mice, loaded with Fluo-4, and changes in fluorescence after elamipretide exposure were imaged. T fluorescence of over 200 individual mast cells, each from wild type and Mrgprb2 knockout mice, were monitored and the percentage of total cells that responded was determined.

[5] = 60 mg SQ elamipretide with or without the intervention, across all timepoints, all participants, n = 80

Cc1cc(O)cc(C)c1C[C@H](NC(=O)[C@H](N)CCCNC(=N)N)C(=O)N[C@@H](CCCCN)C(=O)N[C@@H](Cc1ccccc1)C(N)=O (stereo in doubt) [Elamipretide, H-D-Arg-2′,6′Dmt-Lys-Phe-NH2]
Clinically assessed Erythema or redness, (%) of Reported Reactions [1, 5]: (26.3) % | Clinically assessed Erythema or redness, Number of Reported Reactions [1, 5]: 21 | Clinically assessed Induration or swelling, (%) of Reported Reactions [1, 5]: (20.0) % | Clinically assessed Induration or swelling, Number of Reported Reactions [1, 5]: 16 | Clinically assessed Pain or tenderness, (%) of Reported Reactions [1, 5]: (11.3) % | Clinically assessed Pain or tenderness, Number of Reported Reactions [1, 5]: 9 | Clinically assessed Pruritis, (%) of Reported Reactions [1, 5]: (17.5) % | Clinically assessed Pruritis, Number of Reported Reactions [1, 5]: 14 | time post-dose after which bruising appeared to form ([1]; injection site photographs, in those affected): > 12 h | time post-dose at which ISRs captured on the photographs were resolving ([1]; injection site photographs, with the exception of bruising): 4 h | injection site reactions [2]: generally not severe | EC50 [3]: 98.5 µM | EC50 relative to the typical elamipretide injection concentration of 40 mg/mL (times lower) [3]: ~600 times | Fluo-4 fluorescence after elamipretide exposure ([3]; HEK293 cells transfected with MRGPRX2): increased | intracellular calcium response of mast cells ([4]; mast cells from Mrgprb2 knockout mice): almost no responses | intracellular calcium response of mast cells ([4]; wild-type mast cells): Robust increases in intracellular calcium
